A short description of the data set: Decapitated locust model: hemolymph drug concentration by LCMS after administration via esophageal catheter. The settings on record: male, Locusta migratoria (locust), in vivo. As for the experimental part: The insects may be obtained from local suppliers or bred in house. The grasshoppers were reared under crowded conditions at 28° C. and a 12:12 dark:light photocycle and fed fresh grass and bran. Before experiments the grasshoppers were fed ecologically cultivated wheat for two weeks. Animals used are adult males (in some experiments females) between two to four weeks after adult emergence. After decapitation, test compounds are administrated via a catheter or a probe inserted into the midgut of the animal. At various times after administration hemolymph samples are taken for quantitative determination of drug concentration in the hemolymph. The samples are snap-frozen and stored until analyses. Drug concentration is analysed by HPLC, LC/MSMS or other methods.
The head of male locusts (Locusta migratoria), which have been starving for 12 hours, was cut off and a plastic catheter was inserted under microscope into the esophagus. 20 μl of quinidine (0.1 mg/ml) was administered via the catheter by using a Hamilton syringe.
(§1) 10 and 30 minutes after administration (10 μl) hemolymph was collected with a calibrated capillary tube by puncturing the ventral membrane anterior to the thorax and immediately blown into a tube containing 40 μl aqua dest and 100 μl of acetonitrile. Each sample was centrifuged for 5 minutes (10 000g at 4° C.). 100 μl of the supernatants were transferred to new test tubes for LCMS analysis.
as §1, with “The head of male locusts (Locusta migratoria), which have been starving for 12 hours, was cut off and a plastic catheter was inserted under microscope into the esophagus. 20 μl of quinidine (1 mg/ml) was administered via the catheter by using a Hamilton syringe. 10 and” for “10 and”
The head of male locusts (Locusta migratoria), which have been starving for 12 hours, was cut off and a plastic catheter was inserted under microscope into the esophagus. 20 μl of propranolol (0.1 mg/ml) was administered via the catheter by using a Hamilton syringe.
10 and 30 minutes after administration (10 μl) hemolymph was collected with a calibrated capillary tube by puncturing the ventral membrane anterior to the thorax and immediately blown into a tube containing 40 μl aqua dest and 100 μl of acetonitrile. Each sample was centrifuged for 5 minutes (10 000g at 4° C.). 100 μl of the supernatants were transferred to new test tubes for LCMS analysis. […]

Where the note is “2 µg per animal”, `Cn1c(=O)c2c(ncn2C)n(C)c1=O` [caffeine] had a concentration at 10 min of 177 ng/mL and a concentration at 30 min of 276 ng/mL. Moreover, for the setting “20 µg per animal”, the concentration at 10 min was 1150 ng/mL and the concentration at 30 min worked out at 1660 ng/mL.

The values are drawn from patent publication US9176118B2, “Methods employing insect models for determining intestinal absorption of chemical compounds” (Entomopharm ApS, priority 2009, dated 2015).
